Measurements reported in US20230310464A1, “USE OF C[…] THE TREATMENT OF SEIZURES ASSOCIATED WITH RARE […] SYNDROMES RELATED TO BRAIN INJURY” (GW Research Limited, priority 2020, published 2023).
“Also recorded” adds a separate entry of the source.

Test system: seizures associated with hypoxic ischaemic encephalopathy (HIE) or anoxia at birth
Experiment: Open label, expanded-access program: seizure frequency recorded by caregivers in a diary, relative to baseline
Format: in vivo, human
Parameters: reduction in tonic seizures over the treatment period / reduction in spasms over the treatment period / reduction in absence seizures over the treatment period / reduction in tonic-clonic seizures over the treatment period / reduction in myoclonic seizures over the treatment period: concentration or dose not given beside the values; Seizure frequency, Tonic / Seizure frequency, Spasm / Seizure frequency, Absence / Seizure frequency, Tonic-clonic / Seizure frequency, Focal with impairment / Seizure frequency, Atonic / Seizure frequency, Focal without impairment / Seizure frequency, Focal secondary generalisation / Seizure frequency, Myoclonic: unit not given here
Experimental: Subjects were required to be on one or more AEDs at stable doses for a minimum of two weeks prior to baseline and to have stable vagus nerve stimulation (VNS) settings and ketogenic diet ratios for a minimum of four weeks prior to baseline.
Dose was then increased weekly by 5 mg/kg/day to a goal of 20 to 25 mg/kg/day.
Modifications were made to concomitant AEDs as per clinical indication.
Seizure frequency, intensity, and duration were recorded by caregivers in a diary during a baseline period of at least 28 days. Changes in seizure frequency relative to baseline were calculated after at least 2 weeks and at defined timepoints of treatment.
Patients may be defined as responders if they had more than 50% reduction in seizure frequency compared to baseline. The percent change in seizure frequency was calculated as follows: […]
The percent change of seizure frequency may be calculated for any time interval where seizure number has been recorded. For the purpose of this example the percent change of seizure frequency for the end of the treatment period was calculated as follows: […]

[1] = Patient 4, 48 weeks, CBD 15.0 mg/kg/day
[2] = Patient 4, 60 weeks, CBD 20.0 mg/kg/day
[3] = Patient 4, treated for 60 weeks, vs baseline
[4] = Patient 5, 2 weeks, CBD 10.0 mg/kg/day
[5] = Patient 5, 4 weeks, CBD 20.0 mg/kg/day
[6] = Patient 5, 8 weeks, CBD 25.0 mg/kg/day
[7] = Patient 5, 12 weeks, CBD 25.0 mg/kg/day
[8] = Patient 5, 16 weeks, CBD 25.0 mg/kg/day
[9] = Patient 6, 2 weeks, CBD 10.0 mg/kg/day
[10] = Patient 6, treated for 2 weeks, vs baseline
[11] = Patient 7, 2 weeks, CBD 5.0 mg/kg/day
[12] = Patient 7, 4 weeks, CBD 10.0 mg/kg/day
[13] = Patient 7, 8 weeks, CBD 20.0 mg/kg/day
[14] = Patient 7, 12 weeks, CBD 25.0 mg/kg/day
[15] = Patient 9, 2 weeks, CBD 15.0 mg/kg/day
[16] = Patient 9, 4 weeks, CBD 20.0 mg/kg/day
[17] = Patient 9, 8 weeks, CBD 25.0 mg/kg/day
[18] = Patient 9, 12 weeks, CBD 25.0 mg/kg/day
[19] = Patient 9, 16 weeks, CBD 25.0 mg/kg/day
[20] = Patient 9, 24 weeks, CBD 25.0 mg/kg/day
[21] = Patient 9, 36 weeks, CBD 25.0 mg/kg/day
[22] = Patient 9, 48 weeks, CBD 25.0 mg/kg/day
[23] = Patient 9, 60 weeks, CBD 25.0 mg/kg/day
[24] = Patient 9, 72 weeks, CBD 25.0 mg/kg/day
[25] = Patient 9, 84 weeks, CBD 25.0 mg/kg/day
[26] = Patient 9, 108 weeks, CBD 25.0 mg/kg/day
[27] = Patient 9, 132 weeks, CBD 25.0 mg/kg/day

## C=C(C)[C@@H]1CCC(C)=C[C@H]1c1c(O)cc(CCCCC)cc1O [CBD, cannabidiol]
Patient 4, 36 weeks, CBD 15.0 mg/kg/day
  Seizure frequency, Tonic-clonic: 0
[1]
  Seizure frequency, Atonic: 0
  Seizure frequency, Tonic: 0
  Seizure frequency, Tonic-clonic: 3.3
[2]
  Seizure frequency, Atonic: 4.0
  Seizure frequency, Tonic: 0
  Seizure frequency, Tonic-clonic: 19.3
[3]
  reduction in tonic seizures over the treatment period: 100%
  reduction in tonic-clonic seizures over the treatment period: 87.1%
[4]
  Seizure frequency, Focal secondary generalisation: 114.0
  Seizure frequency, Focal without impairment: 0
[5]
  Seizure frequency, Focal secondary generalisation: 106.0
  Seizure frequency, Focal without impairment: 2.0
[6]
  Seizure frequency, Focal secondary generalisation: 112.8
  Seizure frequency, Focal without impairment: 1.9
[7]
  Seizure frequency, Focal secondary generalisation: 111.0
  Seizure frequency, Focal without impairment: 2.1
[8]
  Seizure frequency, Focal secondary generalisation: 125.5
  Seizure frequency, Focal without impairment: 3.9
Patient 5, treated for 16 weeks
  reduction in seizures over the treatment period (in words): did not experience a reduction in seizures
[9]
  Seizure frequency, Spasm: 100.0
  Seizure frequency, Tonic-clonic: 10.0
[10]
  reduction in spasms over the treatment period: 53.9%
  reduction in tonic-clonic seizures over the treatment period: 28.6%
[11]
  Seizure frequency, Focal with impairment: 70.0
  Seizure frequency, Myoclonic: 58.0
  Seizure frequency, Tonic-clonic: 74.0
[12]
  Seizure frequency, Focal with impairment: 78.0
  Seizure frequency, Myoclonic: 18.0
  Seizure frequency, Tonic-clonic: 102.0
[13]
  Seizure frequency, Focal with impairment: 65.3
  Seizure frequency, Myoclonic: 65.3
  Seizure frequency, Tonic-clonic: 86.7
[14]
  Seizure frequency, Focal with impairment: 71.0
  Seizure frequency, Myoclonic: 7.0
  Seizure frequency, Tonic-clonic: 65.0
Patient 7, treated for 12 weeks, vs baseline
  reduction in myoclonic seizures over the treatment period: 30%
Patient 8, 4 weeks, CBD 5.0 mg/kg/day
  Seizure frequency, Absence: 5376.0
Patient 8, 8 weeks, CBD 5.0 mg/kg/day
  Seizure frequency, Absence: 4803.0
Patient 8, 12 weeks, CBD 10.0 mg/kg/day
  Seizure frequency, Absence: 3514.0
Patient 8, 24 weeks, CBD 15.0 mg/kg/day
  Seizure frequency, Absence: 4284.0
Patient 8, 36 weeks, CBD 20.0 mg/kg/day
  Seizure frequency, Absence: 2989.3
Patient 8, 48 weeks, CBD 25.0 mg/kg/day
  Seizure frequency, Absence: 3360.0
Patient 8, 60 weeks, CBD 25.0 mg/kg/day
  Seizure frequency, Absence: 3136.0
Patient 8, 72 weeks, CBD 25.0 mg/kg/day
  Seizure frequency, Absence: 2968.0
Patient 8, 84 weeks, CBD 25.0 mg/kg/day
  Seizure frequency, Absence: 2718.0
Patient 8, treated for 84 weeks, vs baseline
  reduction in absence seizures over the treatment period: 64%
[15]
  Seizure frequency, Myoclonic: 2.0
  Seizure frequency, Tonic: 118.0
[16]
  Seizure frequency, Myoclonic: 1.0
  Seizure frequency, Tonic: 88.0
[17]
  Seizure frequency, Myoclonic: 0
  Seizure frequency, Tonic: 48.0
[18]
  Seizure frequency, Myoclonic: 0
  Seizure frequency, Tonic: 92.0
[19]
  Seizure frequency, Myoclonic: 0
  Seizure frequency, Tonic: 90.0
[20]
  Seizure frequency, Myoclonic: 0
  Seizure frequency, Tonic: 142.4
[21]
  Seizure frequency, Myoclonic: 0
  Seizure frequency, Tonic: 53.0
[22]
  Seizure frequency, Myoclonic: 0
  Seizure frequency, Tonic: 98.0
[23]
  Seizure frequency, Myoclonic: 0
  Seizure frequency, Tonic: 95.6
[24]
  Seizure frequency, Myoclonic: 0
  Seizure frequency, Tonic: 96.0
[25]
  Seizure frequency, Myoclonic: 0
  Seizure frequency, Tonic: 99.2
[26]
  Seizure frequency, Myoclonic: 0
  Seizure frequency, Tonic: 69.0
[27]
  Seizure frequency, Myoclonic: 0
  Seizure frequency, Tonic: 76.8
Patient 10, 4 weeks, CBD 5.0 mg/kg/day
  Seizure frequency, Absence: 10.0
Patient 10, 12 weeks, CBD 10.0 mg/kg/day
  Seizure frequency, Absence: 610.0
Patient 10, 24 weeks, CBD 15.0 mg/kg/day
  Seizure frequency, Absence: 304.0
Patient 10, 36 weeks, CBD 20.0 mg/kg/day
  Seizure frequency, Absence: 2184.6
Patient 10, 48 weeks, CBD 25.0 mg/kg/day
  Seizure frequency, Absence: 1957.3
Patient 10, 60 weeks, CBD 25.0 mg/kg/day
  Seizure frequency, Absence: 1520.3
Patient 10, 72 weeks, CBD 25.0 mg/kg/day
  Seizure frequency, Absence: 1655.6
Patient 10, 84 weeks, CBD 25.0 mg/kg/day
  Seizure frequency, Absence: 1626.6
Patient 10, 96 weeks, CBD 25.0 mg/kg/day
  Seizure frequency, Absence: 1678.3
Patient 10, 120 weeks, CBD 25.0 mg/kg/day
  Seizure frequency, Absence: 1644.5
Patient 10, 132 weeks, CBD 25.0 mg/kg/day
  Seizure frequency, Absence: 1370.8
Patient 10, treated for 132 weeks, vs baseline
  reduction in absence seizures over the treatment period: 54.3%
Patient #2
  time of CBD treatment after which patient became seizure free of tonic seizures: 36 weeks
Patient #4
  time of CBD treatment after which patient became seizure free of tonic seizures: 12 weeks
Patients 2 and 4, between 12 and 36 weeks of treatment
  seizure freedom in patients with tonic seizures (in words): completely seizure free
tonic, tonic-clonic, atonic, myoclonic, absence, focal seizures with impairment and spasms, HIE or anoxia at birth
  effect on seizures / seizure frequency (in words): effective in reducing the frequency; also recorded: significantly reduce the number of seizures; also recorded: significant reduction
